Legend:
[1] = test system: STAT5 Y694 phosphorylation; test: Protein electrophoresis and blotting of STAT5 Y694 phosphorylation in Jurkat cells stimulated with human interferon beta; assay type: cell-based; conditions: observed pSTAT5 bands at 10 μM and 100 μM
Method in brief: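 Serum-free Jurkat cells pretreated with compound 1 h, then stimulated with 20 ng/ml human interferon beta for 30 min at 37° C. pSTAT5 measured by western blot with chemiluminescence, normalized to GAPDH and expressed as percent of DMSO control.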

[2] = test system: STAT5 Y694 phosphorylation; test: HTRF experiment: STAT5 Y694 phosphorylation in Hela cells stimulated with human interferon beta; assay type: cell-based; conditions: 2 hours pretreatment, 10 nM human interferon beta 30 minutes
Method: Example of Effect 3: HTRF Experiment
Human Interferon 3 (IFN-0) (GenScript, Cat #P01574), STAT5 Y694 phosphorylation detection kit (STAT5 phospho-Y694 kit) (Cisbio; Cat #64AT5PEG).
Hela cells (ATCC American Standard Culture Center, CCL-2) were cultured in a 96-well plate at a density of 3×10^4 cells/well with DMEM medium containing 5% fetal bovine serum and maintained at 37° C. in a humidified incubator with 5% carbon dioxide overnight. On the second day, the original DMEM medium in the 96-well plate was sucked dry, and an equal volume of medium containing different concentrations of compounds (the mother liquor of the compound prepared by dimethyl sulfoxide was diluted in the medium at the required concentration) was added for pretreatment for 2 hours, and then it was placed in an incubator at 37° C. Then human interferon beta with a final concentration of 10 nM was added to stimulate, and it was gently shaken to mix well and then placed in an incubator at 37° C. for 30 minutes.
The medium was removed, an appropriate volume of PBS was added to wash, and then it was sucked dry. Then 40 microliters of 1× Lysis Buffer was added to each well and it was stood for 30 minutes at room temperature (1 ml 1× lysate preparation: 740 μl ddH2O was added to 250 μl 4× lysate and 10 μl Blocking reagent and it was mixed thoroughly). After 30 minutes, the cells were repeatedly blown until the lysis solution was not viscous (avoiding blowing out bubbles) to achieve sufficient lysis.
After overnight incubation, the signals of 665 nm and 620 nm were detected in a multifunctional microplate reader. The calculation formula for the detection of STAT5 Y694 phosphorylation is: Ratio=[(signal 665 nm)/(signal 620 nm)]×10^4. Treatment with dimethyl sulfoxide alone was the baseline control (Ratiobase), and the human interferon β stimulation without addition of the compound was the STAT5 Y694 full phosphorylation activation control (Ratiostimulation), the inhibition rate of STAT5 Y694 phosphorylation of different samples was normalized: Inhibition rate=[1−(RatioExperiment−Ratiobase)/(Ratiostimulation−Ratiobase)]*100.

## O=C(Cc1ccc2c(c1)OCO2)N1CCC(n2c(=O)[nH]c3cccc(C(F)(F)F)c32)CC1 [GEN1-116, 1-(1-(2-(benzo[d][1,3]dioxol-5-yl)acetyl)piperidin-4-yl)-7-(trifluoromethyl)-1,3-dihydro-2H-benzo[d]imidazol-2-one]
[1]
  Example of Effect 1: Inhibiting Ability (Protein Electrophoresis and Blotting): +
[2]
  Example of Effect 3: Inhibiting Ratio@10 μM (HTRF Experiment): 35.01%

## O=C(Cc1ccc(C(F)(F)F)cc1)N1CCC(n2c(=O)[nH]c3cccc(O)c32)CC1 [GEN1-016, 7-hydroxy-1-(1-(2-(4-(trifluoromethyl)phenyl)acetyl)piperidin-4-yl)-1H-benzo[d]imidazole-2 (3H)-one]
[1]
  Example of Effect 1: Inhibiting Ability (Protein Electrophoresis and Blotting): +
[2]
  Example of Effect 3: Inhibiting Ratio@10 μM (HTRF Experiment): 9.50%

## O=C(Nc1ccc(C(F)(F)F)cc1)N1CCC(n2c(=O)[nH]c3cccc(C(F)(F)F)c32)CC1 [GEN1-149, 4-(2-oxo-7-(trifluoromethyl)-2,3-dihydro-1H-benzo[d]imidazol-1-yl)-N-(4-(trifluoromethyl)phenyl)piperidin-1-carboxamide]
[1]
  Example of Effect 1: Inhibiting Ability (Protein Electrophoresis and Blotting): +
[2]
  Example of Effect 3: Inhibiting Ratio@10 μM (HTRF Experiment): 0.49%

## CC(C)(C(=O)N1CCC(n2c(=O)[nH]c3cccc(C(F)(F)F)c32)CC1)c1ccc(C(F)(F)F)cc1 [GEN1-158, 1-(1-(2-methyl-2-(4-(trifluoromethyl)phenyl)propionyl)piperidin-4-yl)-7-(trifluoromethyl)-1H-benzo[d]imidazol-2(3H)-one]
[1]
  Example of Effect 1: Inhibiting Ability (Protein Electrophoresis and Blotting): −
[2]
  Example of Effect 3: Inhibiting Ratio@10 μM (HTRF Experiment): 0.16%

## O=C(Cc1ccc2nccnc2c1)N1CCC(n2c(=O)[nH]c3cccc(C(F)(F)F)c32)CC1 [GEN1-140, 1-(1-(2-(quinoxalin-6-yl)acetyl)piperidin-4-yl)-7-(trifluoromethyl)-1,3-dihydro-2H-benzo[d]imidazol-2-one]
[1]
  Example of Effect 1: Inhibiting Ability (Protein Electrophoresis and Blotting): +
[2]
  Example of Effect 3: Inhibiting Ratio@10 μM (HTRF Experiment): 53.79%

## O=C(C(=O)N1CCC(n2c(=O)[nH]c3cccc(C(F)(F)F)c32)CC1)c1ccc(C(F)(F)F)cc1 [GEN1-160, 1-(4-(2-oxo-7-(trifluoromethyl)-2,3-dihydro-1H-benzo[d]imidazol-1-yl)piperidin-1-yl)-2-(4-(trifluoromethyl)phenyl)1,2-dione]
[1]
  Example of Effect 1: Inhibiting Ability (Protein Electrophoresis and Blotting): +
[2]
  Example of Effect 3: Inhibiting Ratio@10 μM (HTRF Experiment): 10.27%

## O=C(C[C@H]1CC[C@@H](C(F)(F)F)CC1)N1CCC(n2c(=O)[nH]c3ccccc32)CC1 [GEN1-107, (Cis)-1-(1-(2-(4-(trifluoromethyl)cyclohexyl)acetyl)piperidin-4-yl)-1H-benzo[d]imidazol-2(3H)-one]
[1]
  Example of Effect 1: Inhibiting Ability (Protein Electrophoresis and Blotting): +
[2]
  Example of Effect 3: Inhibiting Ratio@10 μM (HTRF Experiment): 37.09%

## O=C(Cc1ccc(Cl)c(OC(F)(F)F)c1)N1CCC(n2c(=O)[nH]c3cccc(C(F)(F)F)c32)CC1 [GEN1-280, 1-(1-(2-(4-chloro-3-(trifluoromethoxy)phenyl)acetyl)piperidin-4-yl)-7-(trifluoromethyl)-1,3-dihydro-2H-benzo[d]imidazol-2-one]
[2]
  Example of Effect 3: Inhibiting Ratio@10 μM (HTRF Experiment): 20.53%

## O=C(Cc1ccc(Cl)cc1)N1CCC(n2c(=O)[nH]c3cccc(C(F)(F)F)c32)CC1 [GEN1-156, 1-(1-(2-(4-chlorophenyl)acetyl)piperidin-4-yl)-7-(trifluoromethyl)-1H-benzo[d]imidazol-2(3H)-one]
[1]
  Example of Effect 1: Inhibiting Ability (Protein Electrophoresis and Blotting): +
[2]
  Example of Effect 3: Inhibiting Ratio@10 μM (HTRF Experiment): 47.04%

## O=C(Cc1c[nH]c2ccccc12)N1CCC(n2c(=O)[nH]c3cccc(C(F)(F)F)c32)CC1 [GEN1-169]
[1]
  Example of Effect 1: Inhibiting Ability (Protein Electrophoresis and Blotting): +
[2]
  Example of Effect 3: Inhibiting Ratio@10 μM (HTRF Experiment): 13.47%

## O=C1CN(C2CCN(C(=O)Cc3ccc(C(F)(F)F)cc3)CC2)c2ccccc2N1 [GEN1-052, 4-(1-(2-(4-(trifluoromethyl)phenyl)acetyl)piperidin-4-yl)-3,4-dihydroquinoxaline-2(1H)-one]
[1]
  Example of Effect 1: Inhibiting Ability (Protein Electrophoresis and Blotting): +
[2]
  Example of Effect 3: Inhibiting Ratio@10 μM (HTRF Experiment): 8.83%

## COc1cc(CC(=O)N2CCC(n3c(=O)[nH]c4cccc(C(F)(F)F)c43)CC2)ccc1Cl [GEN1-278, 1-(1-(2-(4-chloro-3-methoxyphenyl)acetyl)piperidin-4-yl)-7-(trifluoromethyl)-1,3-dihydro-2H-benzo[d]imidazol-2-one]
[2]
  Example of Effect 3: Inhibiting Ratio@10 μM (HTRF Experiment): 73.74%

## O=C(Cc1ccc(C(F)(F)F)cc1)N1CCC(c2c(Br)[nH]c3ccccc23)CC1 [GEN1-139, 1-(4-(2-bromo-1H-indol-3-yl)piperidin-1-yl)-2-(4-(trifluoromethyl)phenyl)ethenone]
[2]
  Example of Effect 3: Inhibiting Ratio@10 μM (HTRF Experiment): 18.43%

## Cc1cccc2[nH]c(=O)n(C3CCN(C(=O)Cc4ccc5ncccc5c4)CC3)c12 [GEN1-292, 7-methyl-1-(1-(2-(quinolin-6-yl)acetyl)piperidin-4-yl)-1,3-dihydro-2H-benzo[d]imidazol-2-one]
[2]
  Example of Effect 3: Inhibiting Ratio@10 μM (HTRF Experiment): 59.63%

## O=C1Nc2ccccc2C2(CCN(C(=O)Cc3ccc(C(F)(F)F)cc3)CC2)O1 [GEN1-178, 1′-(2-(4-(trifluoromethyl)phenyl)acetyl)spiro[benzo[d][1,3]oxazine-4,4′-piperidine]-2(1H)-one]
[2]
  Example of Effect 3: Inhibiting Ratio@10 μM (HTRF Experiment): 8.67%

## CCOc1cccc(CC(=O)N2CCC(n3c(=O)[nH]c4ccccc43)CC2)c1 [GEN1-287]
[2]
  Example of Effect 3: Inhibiting Ratio@10 μM (HTRF Experiment): 8.72%

## O=C1Nc2ccccc2C2(CCN(C(=O)Cc3ccc(C(F)(F)F)cc3)CC2)N1 [GEN1-179, 1-(2-(4-(trifluoromethyl)phenyl)acetyl)-1′H-spiro[piperidin-4,4′-quinazoline]-2′(3′H)-one]
[2]
  Example of Effect 3: Inhibiting Ratio@10 μM (HTRF Experiment): 10.11%

## O=C(Cc1ccc(C(F)(F)F)cc1)NCCn1c(=O)[nH]c2ccccc21 [GEN1-062, N-(2-(2-oxo-2,3-dihydro-1H-benzo[d]imidazol-1-yl)ethyl)-2-(4-(trifluoromethyl)phenyl)acetamide]
[2]
  Example of Effect 3: Inhibiting Ratio@10 μM (HTRF Experiment): 5.12%

## O=C(Cc1ccc2[nH]ccc2c1)N1CCC(n2c(=O)[nH]c3ccccc32)CC1 [GEN1-077, 3-[1-[2-(1H-indol-5-yl)acetyl]-4-piperidinyl]-1H-benzimidazol-2-one]
[2]
  Example of Effect 3: Inhibiting Ratio@10 μM (HTRF Experiment): 34.25%

## O=C(Cc1ccc(C(F)(F)F)cc1)N1CCC(Nc2ccccc2O)CC1 [GEN1-056, 1-(4-((2-hydroxyphenyl)amino)piperidin-1-yl)-2-(4-(trifluoromethyl)phenyl)ethenone]
[2]
  Example of Effect 3: Inhibiting Ratio@10 μM (HTRF Experiment): 13.93%

## COc1cccc(CC(=O)N2CCC(n3c(=O)[nH]c4ccccc43)CC2)c1 [GEN1-270]
[2]
  Example of Effect 3: Inhibiting Ratio@10 μM (HTRF Experiment): 21.10%

## O=C(Cc1ccc(C(F)(F)F)cc1)N1CCC(n2c(=O)[nH]c3cccc(F)c32)CC1 [GEN1-289]
[2]
  Example of Effect 3: Inhibiting Ratio@10 μM (HTRF Experiment): 6.86%

## O=C(Cc1ccc(C(F)(F)F)cc1)N1CCC(N2C(=O)NCc3cccc(C(F)(F)F)c32)CC1 [GEN1-265, 8-(trifluoromethyl)-1-(1-(2-(4-(trifluoromethyl)phenyl)acetyl)piperidin-4-yl)-3,4-dihydroquinazolin-2(1H)-one]
[2]
  Example of Effect 3: Inhibiting Ratio@10 μM (HTRF Experiment): 16.47%

## O=C1CN(C2CCN(C(=O)Cc3ccc(C(F)(F)F)cc3)CC2)c2ccc(C(F)(F)F)cc2N1 [GEN1-135, 7-(trifluoromethyl)-4-(1-(2-(4-(trifluoromethyl)phenyl)acetyl)piperidin-4-yl)-3,4-dihydroquinoxaline-2(1H)-one]
[2]
  Example of Effect 3: Inhibiting Ratio@10 μM (HTRF Experiment): 22.91%

## O=C(Cc1ccc2ncccc2c1)N1CCC(n2c(=O)[nH]c3cccc(Cl)c32)CC1 [GEN1-291]
[2]
  Example of Effect 3: Inhibiting Ratio@10 μM (HTRF Experiment): 70.98%

## O=C(Cc1ccc2c(c1)CCCN2)N1CCC(n2c(=O)[nH]c3cccc(C(F)(F)F)c32)CC1 [GEN1-276, 1-(1-(2-(1,2,3,4-tetrahydroquinolin-6-yl)acetyl)piperidin-4-yl)-7-(trifluoromethyl)-1,3-dihydro-2H-benzo[d]imidazol-2-one]
[2]
  Example of Effect 3: Inhibiting Ratio@10 μM (HTRF Experiment): 55.48%

## O=C(Cc1ccc(C(F)(F)F)cc1)N1CCC(n2c(=O)[nH]c3cccc(Cl)c32)CC1 [GEN1-281]
[2]
  Example of Effect 3: Inhibiting Ratio@10 μM (HTRF Experiment): 50.87%

## O=C(Cc1ccc(C(F)(F)F)cc1)N1CCC(n2c(=O)[nH]c3cccc(Br)c32)CC1 [GEN1-290]
[2]
  Example of Effect 3: Inhibiting Ratio@10 μM (HTRF Experiment): 57.51%

## O=C(C[C@H]1CC[C@H](C(F)(F)F)CC1)N1CCC(n2c(=O)[nH]c3cccc(C(F)(F)F)c32)CC1 [GEN1-268, 7-(trifluoromethyl)-1-(1-(2-((1R,4R)-4-(trifluoromethyl)cyclohexyl)acetyl)piperidin-4-yl)-1H-benzo[d]imidazol-2(3H)-one]
[2]
  Example of Effect 3: Inhibiting Ratio@10 μM (HTRF Experiment): 58.21%

— patent US20230099441A1, “HETEROCYCLIC COMPOUND, APPLICATION THEREOF, AND COMPOSITION CONTAINING SAME” (GenEros Biopharma Ltd., priority 2019, published 2023)
